The term viability denotes a read-out of living cells in per cent, often relative to untreated cells.

The nature of this series: in vitro. The following applies: human, hela cells, % viability.

Take `O=C(c1ccco1)N1CCN(c2cc(-c3ccsc3)ncn2)CC1` [CBK037690]: the viability at 28.5 h, 10 µM is 100%.
On the same count and under the same terms, the same measure for `COc1ccc(-c2cc(C(=O)N3CCN(C(C)=O)CC3)cnc2-c2ccccc2)cn1` [CBK036637]: 101%; for `COc1ccc(-c2csc(Nc3ccc(S(=O)(=O)Nc4cc(C)on4)cc3)n2)cc1OC` [CBK261797B]: 95.3%; for `O=C(Cn1ccnc1)NC(c1ccc(Cl)cc1)c1cccnc1` (stereo not shown) [CBK281481]: 99.2%.
The same measure, in the same setting: as for `O=C(CSC1c2ccccc2Oc2ccccc21)Nc1ccccc1C(=O)O` [CBK266499], the figure is 98.4%; as for `COc1ccc(NC2=NN(c3ccccc3)C(=O)C2)cc1` [CBK288085], 104%.
Regarding `CCC(=O)Oc1ccc(C(=O)N2CCN(c3ccccc3F)CC2)cc1` [CBK307538], the viability at 28.5 h, 10 µM was 103%.
Turning to `COc1ccc(-c2nnc(SCC(=O)O)n2C)cc1` [CBK287232], the viability at 28.5 h, 10 µM came out at 93%.
On to `Cn1nccc1C(=O)NC(Cc1cccs1)c1ccccn1` (stereo not shown) [CBK285207], for which the viability at 28.5 h, 10 µM worked out at 96.1%.
Same read-out and setting: the same measure for `CCCC/C=C/c1cnc(N)c(N[C@@H](C)c2ccccc2)n1` [CBK063722]: 109%.
Same read-out and setting: as for `CC1CCN(CC(C)(C)n2cncc2-c2cnn(C)c2)CC1` [CBK281738], the figure is 107%.
In the case of `Cn1cc(-c2nc(C3COCCN3Cc3c(F)cccc3Cl)no2)cn1` (stereo not shown) [CBK305441], the viability at 28.5 h, 10 µM stood at 79.4%.
Take `Cc1noc(/C=C\c2cc(C)n(-c3ccc(C(=O)O)cc3)c2C)c1[N+](=O)[O-]` [CBK268862]: the viability at 28.5 h, 10 µM was found to be 98.8%.
Take `CC1(C)O[C@@H]2O[C@@H](C(O)CNC(=O)c3ccccc3)[C@@H](O)[C@@H]2O1` (stereo partly shown) [CBK008736]: the viability at 28.5 h, 10 µM was determined as 87%.
`COc1cc(C(=O)N2CCC3(CC2)CC(=O)c2cc(CN4CCN(C)CC4)ccc2O3)cc(OC)c1C` [CBK169185]: the viability at 28.5 h, 10 µM amounted to 94.6%.
On to `CCc1ccc2c(c1)C(CCNC(=O)c1ncoc1C(F)(F)F)C(=O)N2` (stereo not shown) [CBK304725], for which the viability at 28.5 h, 10 µM was 99.4%.
Regarding `CC(C)(C)c1ccc(C(=O)Nc2nsc(-c3ccc(Cl)cc3)n2)cc1` [CBK113176], the viability at 28.5 h, 10 µM is 89.6%.
With `CN(C/C=C/c1ccccc1[N+](=O)[O-])CCc1ccccn1` [CBK261890], the viability at 28.5 h, 10 µM was found to be 92.5%.
For `COc1ccc(CN2CCN(Cc3ccccc3)CC2)c(OC)c1` [CBK261553], for the setting “bulk resorufin, single well”, the viability at 28.5 h, 10 µM is 115%.
As to `CCOc1ccc(CC(=O)Nc2ncccc2OCCCC#N)cc1` [CBK304062], the viability at 28.5 h, 10 µM amounted to 90.3%.
In the case of `N#C/C(=C/c1ccc(-c2ccc(S(N)(=O)=O)cc2)o1)C(=O)Nc1ccccc1` [CBK263123], the viability at 28.5 h, 10 µM came to 119%.
Take `Cc1cc(/C=C2/NC(=S)NC2=O)c(C)n1-c1ccc(Sc2ccc([N+](=O)[O-])cc2)cc1` [CBK263883]: the viability at 28.5 h, 10 µM was 109%.
As for `Cc1ccc(CNC(=O)OCc2cccnc2C)o1` [CBK200131], the viability at 28.5 h, 10 µM amounted to 99%.
For the molecule `CC(C)N(C)CC(=O)N(C)c1nc2c(s1)CC(c1ccccc1)CC2` (stereo not shown) [CBK305535], the viability at 28.5 h, 10 µM was 93.7%.
Consider `COCCNS(=O)(=O)c1cccc2c1CN(C(=O)c1ccccc1)CC2` [CBK306539], for which the viability at 28.5 h, 10 µM worked out at 106%.
`Fc1cccc2sc(Nc3nnc(-c4ccco4)o3)nc12` [CBK287480]: the viability at 28.5 h, 10 µM worked out at 82.6%.
Consider `Oc1ccc(CN2CCN(c3ncccn3)CC2)cc1` [CBK261567], for which the viability at 28.5 h, 10 µM came out at 105%.
As to `CC(C)CN1CCOC(CNC(=O)c2cc(O)nc3ccccc23)C1` (stereo not shown) [CBK297931], the viability at 28.5 h, 10 µM was 80.6%.
On to `CCOCCCNC(=O)c1cnn2c(C)c(Cc3cccc(C#N)c3)c(C)nc12` [CBK162081], for which the viability at 28.5 h, 10 µM stood at 101%.
Still for that read-out and setting: as for `Cc1cc(C[C@@H]2CCC[C@H]2NCc2nc3ccccc3[nH]2)on1` [CBK284935], the figure is 87.3%; as for `NC(=O)c1c(NC(=O)/C=C/c2c(F)cccc2Cl)sc2c1CCCCCC2` [CBK262631], 98.2%.
For `COc1ccc(-c2cnn(-c3ccccc3CN(C)C)n2)cc1` [CBK112762], the viability at 28.5 h, 10 µM was 106%.
For the molecule `O=C(NCCNc1ccc(Cl)cc1[N+](=O)[O-])c1ccccc1Br` [CBK263538], the viability at 28.5 h, 10 µM came out at 102%.
`O=S(=O)(Nc1nc(CCNCCO)cs1)c1ccc(Oc2ccccc2)cc1` [CBK034632]: the viability at 28.5 h, 10 µM worked out at 111%.
Same read-out and setting: the same measure for `O=C(NCc1ccccn1)c1cc2cc(Cl)ccc2[nH]1` [CBK107265]: 88.2%; for `O=C(Nc1ccc(Cl)cc1)N1CCN(CCCCc2ccc(F)cc2)CC1` [CBK017951C]: 111%; for `Cc1c(Cl)cccc1S(=O)(=O)Nc1nc(-c2cccc([N+](=O)[O-])c2)cs1` [CBK000994]: 107%.
Still for that read-out and setting: as for `CC(C)c1ccc(N2C(=O)[C@@H]3C[C@@H](NC(=O)c4cccs4)CCN3C2=O)cc1` [CBK289541], the figure is 93.1%; as for `Cc1ccc(C#N)cc1S(=O)(=O)NC(=O)CC1CCOc2ccccc21` (stereo not shown) [CBK306476], 85.5%.
For the molecule `COc1ccc(-c2nc(NC(=O)c3ccco3)cnc2-c2cccc(C)c2)cn1` [CBK036954], the viability at 28.5 h, 10 µM is 96.8%.
For the molecule `Cc1cccc(-c2nc(=S)c3c(n2CCCN(C)C)CCCC3)c1` [CBK268406], the viability at 28.5 h, 10 µM is 102%.
Turning to `COc1cc(C(C)c2cc3c(cc2O)OCO3)cc(OC)c1OC` (stereo not shown) [CBK200103], the viability at 28.5 h, 10 µM was 36.3%.
Same read-out and setting: as for `CCn1cc(CN2CCN(C(=O)C3C4CCCCC43)CC2)c(C)n1` (stereo not shown) [CBK281545], the figure is 97.1%.
On the same count and under the same terms, the same measure for `Cn1c(N2CC[C@H](O)C2)nc2cc(C(=O)NCCn3cccn3)ccc21` [CBK307328]: 111%.
`Cc1ccccc1N1C(=O)/C(=C/c2cn(Cc3ccccc3[N+](=O)[O-])c3ccccc23)SC1=S` [CBK265101]: the viability at 28.5 h, 10 µM came to 101%.
Same read-out and setting: as for `Cc1nc(C)c(C(=O)Nc2c(C)noc2C)s1` [CBK200313], the figure is 105%.
Consider `Cc1ccc(SCCC(=O)NC(CCC(=O)O)C(=O)O)cc1` (stereo not shown) [CBK295173], for which the viability at 28.5 h, 10 µM is 88%.
Regarding `COC(=O)CCNc1n[nH]c(=O)[nH]c1=O` [CBK217927], the viability at 28.5 h, 10 µM was found to be 90.4%.
Consider `CC[C@H](Cn1nc(-c2cccs2)ccc1=O)NC(=O)C1CCC1` [CBK284295], for which the viability at 28.5 h, 10 µM was found to be 103%.
Still for that read-out and setting: the same measure for `COc1ccc(S(=O)(=O)N(Cc2c(F)cccc2F)C2CCN(C)CC2)cc1` [CBK161910T]: 109%.
The same measure, in the same setting: the same measure for `CSCCCNC(=O)N(CCc1ccccc1)Cc1ccccc1` [CBK155317]: 87.2%.
In the case of `Nc1cc2cccnc2nc1-c1cccnc1` [CBK067602], the viability at 28.5 h, 10 µM was 84.8%.
For `O=C(COc1ccc(Cl)cc1)NNC(=O)Cc1cccc2ccccc12` [CBK261693], the viability at 28.5 h, 10 µM was 91.4%.
`CCCn1ccnc1SCC(=O)Nc1ccc(N(C)C)cc1` [CBK304996]: the viability at 28.5 h, 10 µM is 112%.
Consider `O=S(=O)(c1ccc(Br)cc1)N1CCCCC1CO` (stereo not shown) [CBK051127], for which the viability at 28.5 h, 10 µM is 116%.
As to `CCc1c(C)nc2c(NC(C)=O)cccc2c1SCCC(=O)O` [CBK159594T], the viability at 28.5 h, 10 µM was 106%.
On the same count and under the same terms, the same measure for `CC(=O)N1C2CCC1CC(O)(Cn1ccc3ccnc(Cl)c31)C2` (stereo not shown) [CBK284868]: 106%.
For `Cc1cc(C)c(C)c(C(=O)COC(=O)c2cc(O)nc3ccccc23)c1C` [CBK264066], the viability at 28.5 h, 10 µM amounted to 94.8%.
Still for that read-out and setting: as for `O=C(c1cc(F)c(F)cc1F)N1CCC2(CCN(Cc3nc4ccccc4[nH]3)C2)C1` (stereo not shown) [CBK132134], the figure is 89.9%; as for `C=Cn1cc(CN2CCCN(Cc3cccc(F)c3)CC2)c(C)n1` [CBK282594], 98.7%.
Consider `CC(=O)Nc1ccc(CN(C)c2c(C)nc3ccc(C(=O)N(C)CCN(C)C)cn23)cc1` [CBK147107], for which the viability at 28.5 h, 10 µM worked out at 109%.
For the molecule `O=C(C1CCCN1)N1CC2(CCCC2)c2c(F)cccc21` (stereo not shown) [CBK304489], the viability at 28.5 h, 10 µM amounted to 90.1%.
In the case of `OC1CCN(Cc2ccc(-c3ccc(F)cc3F)o2)CC1` [CBK283200], the viability at 28.5 h, 10 µM turned out to be 98.9%.
With `CC(C)(CN(Cc1ccccc1)C(=O)/C=C/c1ccccc1)NC(=O)OC(C)(C)C` [CBK003266], the viability at 28.5 h, 10 µM is 91.2%.
As to `O=S(=O)(Nc1cccc(-c2nnn[nH]2)c1)c1sc(Cl)cc1Br` [CBK155035], the viability at 28.5 h, 10 µM worked out at 94.6%.
Same read-out and setting: as for `COc1ccc(Cn2nc(NC(=O)Nc3ccc(N(C)C)cc3)c3ccccc32)cc1` [CBK048529], the figure is 90%; as for `C=CCOc1ccc2ccccc2c1CNc1nc[nH]n1` [CBK267296], 87.9%; as for `Cc1c(Cl)c([N+](=O)[O-])nn1CCCC(=O)Nc1sc2c(c1C#N)CCC(C(C)(C)C)C2` (stereo not shown) [CBK269111], 108%.
Turning to `Clc1ccccc1-c1nccnc1OCCOc1ccccc1` [CBK107011], the viability at 28.5 h, 10 µM worked out at 95.9%.
The same measure, in the same setting: as for `CCOC(=O)c1c(NC(=O)CN2CC(C)OC(C)C2)sc2c1CCC(C)C2` (stereo not shown) [CBK264572], the figure is 107%; as for `O=C(O)c1cccc(NC(=O)c2cnc(-c3ccccc3)c(-c3ccco3)c2)c1` [CBK036710], 93.4%; as for `CC1CN(C(=O)NC2CC2)C(C)CN1CCCC(c1ccc(F)cc1)c1ccc(F)cc1` (stereo not shown) [CBK024927C], 104%.
Still for that read-out and setting: as for `O=c1ccc2ccc(-c3cccc(OCc4ccccc4)c3)nc2[nH]1` [CBK073722], the figure is 95.9%; as for `CCC(CC)C(=O)Nc1nc(OCCN2CCCC2=O)cnc1-c1ccc(Cl)cc1Cl` [CBK145210], 92.6%; as for `Cc1ccc(/C=C2\SC(=S)N(CC(=O)Nc3cccc(C(=O)O)c3)C2=O)cc1` [CBK263935], 86.2%.
Regarding `CCCc1c(C)nc2ccccc2c1SCC(=O)O` [CBK263558], the viability at 28.5 h, 10 µM amounted to 93.7%.
`CC1=C(C(=O)Nc2ccc(Cl)cc2Cl)SCCO1` [CBK057784]: the viability at 28.5 h, 10 µM was determined as 96.5%.
Still for that read-out and setting: the same measure for `O=C(O)c1ccc(S(=O)(=O)c2ccc3c(c2)C(=O)N(c2nccs2)C3=O)cc1` [CBK261189]: 90.1%.
On the same count and under the same terms, as for `O=C1N=C(NC2CCCCC2)SC1Cc1nc2ccccc2o1` (stereo not shown) [CBK067970], the figure is 96.4%.

Values taken from publication PMC12040169 (PLOS Biology, 2025).
